Data on three molecules can be found in ChEMBL document CHEMBL3526031, “Mechanistic studies on the absorption and disposition of scutellarin in humans: selective OATP2B1-mediated hepatic uptake is a likely key determinant for its unique pharmacokinetic characteristics” (Drug Metab Dispos, 2012).

The Km is the concentration of substrate that gives half-maximal velocity. Broadly, the Vmax is the top rate of the reaction or transport when substrate is in excess. As usually defined, the Ki is the equilibrium dissociation constant of an inhibitor or competing ligand from its target.

In data set [1] the test system is Liver microsome. Kind of data set: Drug metabolism in human liver microsomes assessed as formation of scutellarein-7-O-glucuronide after 7 mins by HPLC/UV analysis. The class given is ADME. In general terms: Liver microsomes are a subcellular fraction often used to study metabolism.
Data set [2] in a line: Drug metabolism in rat intestinal microsomes assessed as formation of scutellarein-7-O-glucuronide after 7 mins by HPLC/UV analysis. In kind it is ADME, Intestine, Microsome.
The test system of data set [3] is Liver microsome. Kind of data set: Ratio of Vmax to Km for drug metabolism in human liver microsomes assessed as formation of scutellarein-7-O-glucuronide after 7 mins by HPLC/UV analysis. The class given is ADME.
Data set [4] deals with Liver microsome. Kind of data set: Ratio of Vmax to Km for drug metabolism in human liver microsomes assessed as formation of scutellarein-6-O-glucuronide after 7 mins by HPLC/UV analysis. In kind it is ADME.
Data set [5] in a line: Ratio of Vmax to Km for drug metabolism in rat intestinal microsomes assessed as formation of scutellarein-7-O-glucuronide after 7 mins by HPLC/UV analysis. In kind it is ADME, Intestine, Microsome.
For data set [6], the system named is Liver microsome. Kind of data set: Drug metabolism in human liver microsomes assessed as formation of scutellarein-6-O-glucuronide after 7 mins by HPLC/UV analysis. In kind it is ADME.
Data set [7] relates to Liver microsome. Kind of data set: Drug metabolism in rat liver microsomes assessed as formation of scutellarein-6-O-glucuronide after 7 mins by HPLC/UV analysis. In kind it is ADME.
Data set [8] is described as follows: Ratio of Vmax to Km for drug metabolism in human intestinal microsomes assessed as formation of scutellarein-6-O-glucuronide after 7 mins by HPLC/UV analysis. The class given is ADME, Intestine, Microsome.
Data set [9] in a line: Drug metabolism in human intestinal microsomes assessed as formation of scutellarein-6-O-glucuronide after 7 mins by HPLC/UV analysis. The class given is ADME, Intestine, Microsome.
The test system of data set [10] is Liver microsome. Kind of data set: Ratio of Vmax to Km for drug metabolism in rat liver microsomes assessed as formation of scutellarein-6-O-glucuronide after 7 mins by HPLC/UV analysis. In kind it is ADME.
A short description of data set [11]: Drug metabolism in human intestinal microsomes assessed as formation of scutellarein-7-O-glucuronide after 7 mins by HPLC/UV analysis. In kind it is ADME, Intestine, Microsome.
The target in data set [12] is T1, UDP-glucuronosyltransferase 1A1 (Homo sapiens, UniProt P22309).
T1 sequence (P22309 whole entry): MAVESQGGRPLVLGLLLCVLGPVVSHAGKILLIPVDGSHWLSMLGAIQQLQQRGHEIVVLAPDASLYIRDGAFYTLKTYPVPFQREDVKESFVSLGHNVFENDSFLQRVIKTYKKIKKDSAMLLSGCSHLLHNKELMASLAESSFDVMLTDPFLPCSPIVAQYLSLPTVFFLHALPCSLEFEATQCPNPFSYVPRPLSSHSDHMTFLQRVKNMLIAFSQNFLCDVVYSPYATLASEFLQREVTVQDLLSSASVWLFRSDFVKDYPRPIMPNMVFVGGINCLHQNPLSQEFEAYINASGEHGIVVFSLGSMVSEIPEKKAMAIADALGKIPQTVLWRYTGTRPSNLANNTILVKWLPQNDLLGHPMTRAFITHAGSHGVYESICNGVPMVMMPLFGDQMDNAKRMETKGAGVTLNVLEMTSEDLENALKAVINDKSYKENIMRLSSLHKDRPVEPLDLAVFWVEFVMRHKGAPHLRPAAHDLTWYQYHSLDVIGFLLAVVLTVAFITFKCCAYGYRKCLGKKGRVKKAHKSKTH
Kind of data set: Drug metabolism assessed as human recombinant UGT1A1-mediated formation of scutellarein-7-O-glucuronide after 25 mins by HPLC/UV analysis. The class given is ADME.

A short description of data set [13]: Ratio of Vmax to Km for drug metabolism in human intestinal microsomes assessed as formation of scutellarein-7-O-glucuronide after 7 mins by HPLC/UV analysis. In kind it is ADME, Intestine, Microsome.
In data set [14] the test system is Liver microsome. Kind of data set: Ratio of Vmax to Km for drug metabolism in rat liver microsomes assessed as formation of scutellarein-7-O-glucuronide after 7 mins by HPLC/UV analysis. The class given is ADME.
For data set [15], the system named is Liver microsome. Kind of data set: Drug metabolism in rat liver microsomes assessed as formation of scutellarein-7-O-glucuronide after 7 mins by HPLC/UV analysis. The class given is ADME.
A further data set relates to Homo sapiens. Kind of data set: Drug level in human assessed as retention time treated with 40 mg, po of scutellarin measured up to 20 hrs by mass defect filter chromatogram analysis. The class given is ADME, organism-based.
Substrate in data set [16]: O=C(O)[C@H]1O[C@@H](Oc2c(O)cc3oc(-c4ccc(O)cc4)cc(=O)c3c2O)[C@H](O)[C@@H](O)[C@@H]1O
Kind of data set: Drug uptake assessed as OATP2B1 (unknown origin)-mediated drug transport expressed in HEK293 cells after 7 mins by LC-MS/MS analysis. In kind it is ADME, cell-based, Homo sapiens.

Regarding `O=c1cc(-c2ccc(O)cc2)oc2cc(O)c(O)c(O)c12` [SCUTELLAREIN], the Km was determined as 6.32 µM in the data set with Liver microsome [1]; 9 µM in data set [2]; 16.2 µM in the data set with Liver microsome [6]; 2.86 µM with Liver microsome [7]; 7.06 µM in [9]; 5.9 µM in data set [11] (human, microsomes, 7 min). Moreover, in the data set with Liver microsome [15], the Km stood at 7.37 µM. Besides, the Vmax was found to be 8.64 nmol/min/mg with Liver microsome [1]; 17.3 nmol/min/mg in [2]; 1.59 nmol/min/mg in the data set on Liver microsome [6]; 1.65 nmol/min/mg in the data set on Liver microsome [7]; 2.41 nmol/min/mg in data set [9]; 5.45 nmol/min/mg in data set [11] (human, microsomes, 7 min). The Vmax in the data set on Liver microsome [15] was 10 nmol/min/mg. The Vmax/Km in the data set with Liver microsome [3] is 1368 µL/min/mg; in the data set on Liver microsome [4], 97.9 µL/min/mg; in data set [5], 1924 µL/min/mg; in [8], 342 µL/min/mg; in the data set on Liver microsome [10] it was 577 µL/min/mg; in data set [13], 924 µL/min/mg. For the same molecule, in the data set on Liver microsome [14], the Vmax/Km turned out to be 1361 µL/min/mg. Moreover, the Ki was 401 µM in data set [11] and 41.3 µM in data set [12].
As for `O=C(O)[C@H]1O[C@@H](Oc2cc3oc(-c4ccc(O)cc4)cc(=O)c3c(O)c2O[C@@H]2O[C@H](C(=O)O)[C@@H](O)[C@H](O)[C@H]2O)[C@H](O)[C@@H](O)[C@@H]1O`, the Retention_time in the data set on Homo sapiens was found to be 6.02 min.

B1: Solute carrier organic anion transporter family member 2B1 (Homo sapiens) (protein)
chain: MGPRIGPAGEVPQVPDKETKATMGTENTPGGKASPDPQDVRPSVFHNIKLFVLCHSLLQLAQLMISGYLKSSISTVEKRFGLSSQTSGLLASFNEVGNTALIVFVSYFGSRVHRPRMIGYGAILVALAGLLMTLPHFISEPYRYDNTSPEDMPQDFKASLCLPTTSAPASAPSNGNCSSYTETQHLSVVGIMFVAQTLLGVGGVPIQPFGISYIDDFAHNSNSPLYLGILFAVTMMGPGLAFGLGSLMLRLYVDINQMPEGGISLTIKDPRWVGAWWLGFLIAAGAVALAAIPYFFFPKEMPKEKRELQFRRKVLAVTDSPARKGKDSPSKQSPGESTKKQDGLVQIAPNLTVIQFIKVFPRVLLQTLRHPIFLLVVLSQVCLSSMAAGMATFLPKFLERQFSITASYANLLIGCLSFPSVIVGIVVGGVLVKRLHLGPVGCGALCLLGMLLCLFFSLPLFFIGCSSHQIAGITHQTSAHPGLELSPSCMEACSCPLDGFNPVCDPSTRVEYITPCHAGCSSWVVQDALDNSQVFYTNCSCVVEGNPVLAGSCDSTCSHLVVPFLLLVSLGSALACLTHTPSFMLILRGVKKEDKTLAVGIQFMFLRILAWMPSPVIHGSAIDTTCVHWALSCGRRAVCRYYNNDLLRNRFIGLQFFFKTGSVICFALVLAVLRQQDKEARTKESRSSPAVEQQLLVSGPGKKPEDSRV
On to B1, for which the Km in data set [16] was found to be 1.77 µM.
